Values quoted from earlier work, collected in patent US11751566B2, “Growth regulator concentrate and use thereof” (FINE AGROCHEMICALS LIMITED, priority 2013, dated 2023).

solubility in solvents (including water) | Structure (SMILES) | solubility in organic polar solvent (solution as generally provided) (organic polar solvent, like an alcohol)
– | C=C1C[C@]23C[C@@]1(O)CC[C@H]2[C@@]12C=C[C@H](O)[C@@](C)(C(=O)O1)[C@H]2[C@@H]3C(=O)O [GA3, Gibberellic acid] | 3-4 wt %
low solubility | CCC(=O)C1C(=O)CC(C(=O)O)CC1=O (centres unmarked) [Prohexadione] | –
